Experimental data from patent US20110224210A1, “NOVEL BIS-AMIDES AS ANTI-MALARIAL AGENTS” (priority 2008, published 2011).

What follows are compounds tested on P. falciparum K1 (strain resistant to chloroquine and pyrimethamine), erythrocytic stages (assay: Plasmodium falciparum in vitro assay, [3H] hypoxanthine incorporation). Conditions: Plasmodium falciparum, K1, P. falciparum strain K1; [3H] hypoxanthine incorporation; read-out: IC50 (nM) on K1.
Type: cell-based
Summary of the method: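 K1 strain parasites grown in human red cells, 2.5% haematocrit, 0.3% parasitaemia, 37 °C, 4% CO2/3% O2; compounds in seven serial doubling dilutions.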

SMILES | IC50
COCCN(C)C(=O)[C@H](Cc1ccccc1)N(Cc1ccc(-c2cncnc2)cc1)C(=O)C=Cc1csc(C)n1 [Example 122, (S)-N-{1-[(2-Methoxy-ethyl)-methyl-carbamoyl]-2-phenyl-ethyl}-3-(2-methyl-thiazol-4-yl)-N-(4-pyrimidin-5-yl-benzyl)-acrylamide] | 156 nM
COCCN(C)C(=O)[C@H](Cc1ccccc1)N(Cc1ccc(-c2cncnc2)cc1)C(=O)C=Cc1cc(C)on1 [Example 123, (S)-N-{1-[(2-Methoxy-ethyl)-methyl-carbamoyl]-2-phenyl-ethyl}-3-(5-methyl-isoxazol-3-yl)-N-(4-pyrimidin-5-yl-benzyl)-acrylamide] | 296 nM
COCCN(C)C(=O)[C@H](Cc1ccccc1)N(Cc1ccc(-c2cncnc2)cc1)C(=O)C=Cc1c(C)noc1C [Example 124, (S)-3-(3,5-Dimethyl-isoxazol-4-yl)-N-{1-[(2-methoxy-ethyl)-methyl-carbamoyl]-2-phenyl-ethyl}-N-(4-pyrimidin-5-yl-benzyl)-acrylamide] | 110 nM
COCCN(C)C(=O)[C@H](Cc1ccccc1)N(Cc1ccc(-c2cncnc2)cc1)C(=O)C=Cc1csnn1 [Example 125, (S)-N-{1-[(2-Methoxy-ethyl)-methyl-carbamoyl]-2-phenyl-ethyl}-N-(4-pyrimidin-5-yl-benzyl)-3-[1,2,3]thiadiazol-4-yl-acrylamide] | 439 nM
COCCN(C)C(=O)[C@H](Cc1ccccc1)N(Cc1ccc(-c2cncnc2)cc1)C(=O)C=Cc1ccc(OC)nn1 [Example 126, (S)-N-{1-[(2-Methoxy-ethyl)-methyl-carbamoyl]-2-phenyl-ethyl}-3-(6-methoxy-pyridazin-3-yl)-N-(4-pyrimidin-5-yl-benzyl)-acrylamide] | 160 nM
COCCN(C)C(=O)[C@H](Cc1ccccc1)N(Cc1ccc(-c2cncnc2)cc1)C(=O)C=Cc1ccc(Cl)nc1 [Example 128, (S)-3-(6-Chloro-pyridin-3-yl)-N-{1-[(2-methoxy-ethyl)-methyl-carbamoyl]-2-phenyl-ethyl}-N-(4-pyrimidin-5-yl-benzyl)-acrylamide] | 94 nM
COCCN(C)C(=O)[C@H](Cc1ccccc1)N(Cc1ccc(-c2cccnc2)cc1)C(=O)C=Cc1cnc(C)n1C [Example 131, (S)-3-(2,3-Dimethyl-3H-imidazol-4-yl)-N-{1-[(2-methoxy-ethyl)-methyl-carbamoyl]-2-phenyl-ethyl}-N-(4-pyridin-3-yl-benzyl)-acrylamide] | 282 nM
COCCN(C)C(=O)[C@H](Cc1ccccc1)N(Cc1ccc(-c2cccnc2)cc1)C(=O)C=Cc1nc(C)oc1C [Example 133, (S)-3-(2,5-Dimethyl-oxazol-4-yl)-N-{1-[(2-methoxy-ethyl)-methyl-carbamoyl]-2-phenyl-ethyl}-N-(4-pyridin-3-yl-benzyl)-acrylamide] | 82 nM
CN(C)C1CCN(C(=O)[C@H](Cc2ccccc2)N(Cc2ccc(N3CCOCC3)nc2)C(=O)C=Cc2ccc(C(F)(F)F)cc2)CC1 [Example 136, (S)-N-[1-Benzyl-2-(4-dimethylamino-piperidin-1-yl)-2-oxo-ethyl]-N-(6-morpholin-4-yl-pyridin-3-ylmethyl)-3-(4-trifluoromethyl-phenyl)-acrylamide] | 74 nM
Cc1ccc(C=CC(=O)N(Cc2ccc(N3CCOCC3)nc2)[C@@H](Cc2ccccc2)C(=O)N2CCOCC2)cc1 [Example 147, (S)-N-(1-Benzyl-2-morpholin-4-yl-2-oxo-ethyl)-N-(6-morpholin-4-yl-pyridin-3-ylmethyl)-3-p-tolyl-acrylamide] | 77 nM
COc1ccc(C=CC(=O)N(Cc2ccc(N3CCOCC3)nc2)[C@@H](Cc2ccccc2)C(=O)N2CCOCC2)cc1 [Example 148, (S)-N-(1-Benzyl-2-morpholin-4-yl-2-oxo-ethyl)-3-(4-methoxy-phenyl)-N-(6-morpholin-4-yl-pyridin-3-ylmethyl)-acrylamide] | 65 nM
CCCCN(CCCC)CCNC(=O)[C@H](Cc1ccccc1)N(Cc1ccc(-c2ccccn2)cc1)C(=O)C=Cc1ccc(C(F)(F)F)cc1 [Example 150] | 319 nM
O=C(NCCN1CCOCC1)[C@H](Cc1ccccc1)N(Cc1ccc(-c2ccccn2)cc1)C(=O)C=Cc1ccc(C(F)(F)F)cc1 [Example 151] | 373 nM
O=C(NCCN1CCCCC1)[C@H](Cc1ccccc1)N(Cc1ccc(-c2ccccn2)cc1)C(=O)C=Cc1ccc(C(F)(F)F)cc1 [Example 153] | 268 nM
O=C(NCCN1CCCCCC1)[C@H](Cc1ccccc1)N(Cc1ccc(-c2ccccn2)cc1)C(=O)C=Cc1ccc(C(F)(F)F)cc1 [Example 154] | 420 nM
CC(C)N(CCNC(=O)[C@H](Cc1ccccc1)N(Cc1ccc(-c2ccccn2)cc1)C(=O)C=Cc1ccc(C(F)(F)F)cc1)C(C)C [Example 155] | 327 nM
CN(C)CCNC(=O)[C@H](Cc1ccccc1)N(Cc1ccc(-c2ccccn2)cc1)C(=O)C=Cc1ccc(C(F)(F)F)cc1 [Example 156] | 382 nM

Now those with a lower IC50, led by results:

IC50 | SMILES
21 nM | COCCN(C)C(=O)[C@H](Cc1ccccc1)N(Cc1ccc(-c2cncnc2)cc1)C(=O)C=Cc1ccc(Cl)cn1 [Example 127, (S)-3-(5-Chloro-pyridin-2-yl)-N-{1-[(2-methoxy-ethyl)-methyl-carbamoyl]-2-phenyl-ethyl}-N-(4-pyrimidin-5-yl-benzyl)-acrylamide]
19 nM | COCCN(C)C(=O)[C@H](Cc1ccccc1)N(Cc1ccc(-c2cncnc2)cc1)C(=O)C=Cc1cnc(OC)nc1 [Example 129, (S)-N-{1-[(2-Methoxy-ethyl)-methyl-carbamoyl]-2-phenyl-ethyl}-3-(2-methoxy-pyrimidin-5-yl)-N-(4-pyrimidin-5-yl-benzyl)-acrylamide]
< 8 nM | COCCN(C)C(=O)[C@H](Cc1ccccc1)N(Cc1ccc(-c2cncnc2)cc1)C(=O)C=Cc1ccc(C(F)(F)F)cn1 [Example 130, (S)-N-{1-[(2-Methoxy-ethyl)-methyl-carbamoyl]-2-phenyl-ethyl}-N-(4-pyrimidin-5-yl-benzyl)-3-(5-trifluoromethyl-pyridin-2-yl)-acrylamide]
28 nM | COCCN(C)C(=O)[C@H](Cc1ccccc1)N(Cc1ccc(-c2cccnc2)cc1)C(=O)C=Cc1sc(C)nc1C [Example 132, (S)-3-(2,4-Dimethyl-thiazol-5-yl)-N-{1-[(2-methoxy-ethyl)-methyl-carbamoyl]-2-phenyl-ethyl}-N-(4-pyridin-3-yl-benzyl)-acrylamide]
33 nM | COCCN(C)C(=O)[C@H](Cc1ccccc1)N(Cc1ccc(-c2cccnc2)cc1)C(=O)C=Cc1ccc(Cl)nc1 [Example 134, (S)-3-(6-Chloro-pyridin-3-yl)-N-{1-[(2-methoxy-ethyl)-methyl-carbamoyl]-2-phenyl-ethyl}-N-(4-pyridin-3-yl-benzyl)-acrylamide]
< 8 nM | COCCN(C)C(=O)[C@H](Cc1ccccc1)N(Cc1ccc(-c2cccnc2)cc1)C(=O)C=Cc1ccc(OC)nc1 [Example 135, (S)-N-{1-[(2-Methoxy-ethyl)-methyl-carbamoyl]-2-phenyl-ethyl}-3-(6-methoxy-pyridin-3-yl)-N-(4-pyridin-3-yl-benzyl)-acrylamide]
5 nM | O=C([C@H](Cc1ccccc1)N(Cc1ccc(N2CCOCC2)nc1)C(=O)C=Cc1ccc(C(F)(F)F)cc1)N1CCC(Cc2ccccc2)CC1 [Example 143, (S)-N-[1-Benzyl-2-(4-benzyl-piperidin-1-yl)-2-oxo-ethyl]-N-(6-morpholin-4-yl-pyridin-3-ylmethyl)-3-(4-trifluoromethyl-phenyl)-acrylamide]
24 nM | O=C([C@H](Cc1ccccc1)N(Cc1ccc(N2CCOCC2)nc1)C(=O)C=Cc1ccc(C(F)(F)F)nc1)N1CCC(Cc2ccccc2)CC1 [Example 144, (S)-N-[1-Benzyl-2-(4-benzyl-piperidin-1-yl)-2-oxo-ethyl]-N-(6-morpholin-4-yl-pyridin-3-ylmethyl)-3-(6-trifluoromethyl-pyridin-3-yl)-acrylamide]
5 nM | COc1ccc(C=CC(=O)N(Cc2ccc(N3CCOCC3)nc2)[C@@H](Cc2ccccc2)C(=O)N2CCC(Cc3ccccc3)CC2)cc1 [Example 145, (S)-N-[1-Benzyl-2-(4-benzyl-piperidin-1-yl)-2-oxo-ethyl]-3-(4-methoxy-phenyl)-N-(6-morpholin-4-yl-pyridin-3-ylmethyl)-acrylamide]
9 nM | Cc1ccc(C=CC(=O)N(Cc2ccc(N3CCOCC3)nc2)[C@@H](Cc2ccccc2)C(=O)N2CCC(Cc3ccccc3)CC2)cc1 [Example 146, (S)-N-[1-Benzyl-2-(4-benzyl-piperidin-1-yl)-2-oxo-ethyl]-N-(6-morpholin-4-yl-pyridin-3-ylmethyl)-3-p-tolyl-acrylamide]
26 nM | O=C([C@H](Cc1ccccc1)N(Cc1ccc(-c2ccccn2)cc1)C(=O)C=Cc1ccc(C(F)(F)F)cc1)N1CCc2cccnc2C1 [Example 149, (S)-N-[1-Benzyl-2-(5,8-dihydro-6H-[1,7]naphthyridin-7-yl)-2-oxo-ethyl]-N-(4-pyridin-2-yl-benzyl)-3-(4-trifluoromethyl-phenyl)-acrylamide]
10 nM | COCCN(C)C(=O)[C@H](Cc1ccccc1)N(Cc1ccc(N2CCOCC2)nc1)C(=O)C=Cc1ccc(C(F)(F)F)cc1 [Example 157, (S)-N-{1-[(2-Methoxy-ethyl)-methyl-carbamoyl]-2-phenyl-ethyl}-N-(6-morpholin-4-yl-pyridin-3-ylmethyl)-3-(4-trifluoromethyl-phenyl)-acrylamide]
24 nM | COCCN(C)C(=O)[C@H](Cc1ccccc1)N(Cc1ccc(N2CCOCC2)nc1)C(=O)C=Cc1ccc(C)cc1 [Example 158, (S)-N-{1-[(2-Methoxy-ethyl)-methyl-carbamoyl]-2-phenyl-ethyl}-N-(6-morpholin-4-yl-pyridin-3-ylmethyl)-3-p-tolyl-acrylamide]
49 nM | COCCN(C)C(=O)[C@H](Cc1ccccc1)N(Cc1ccc(N2CCOCC2)nc1)C(=O)C=Cc1ccc(OC)cc1 [Example 159, (S)-N-{1-[(2-Methoxy-ethyl)-methyl-carbamoyl]-2-phenyl-ethyl}-3-(4-methoxy-phenyl)-N-(6-morpholin-4-yl-pyridin-3-ylmethyl)-acrylamide]
